Laboratory results taken from patent US8501734B2, “Medical intervention in haematological cancers” (Oncotyrol-Center for Personalized Cancer Medicine GmbH …, priority 2008, dated 2013).

Experiments:
[1] = test system: squamous cell carcinoma cells; conditions: 50 μg/ml, 24 h; cited from earlier work
[2] = test system: OPM2 cells; test: Annexin V/PI apoptosis assay (FACS), OPM2 cells; format: cell-based; parameters: apoptosis induction: unit not given here
[3] = test system: multiple myeloma cell lines; test: Annexin V/PI apoptosis assay, multiple myeloma cell line panel; format: cell-based; conditions: 24 h
Protocol: (§1) After treatment adherent cells were trypsinized (as described before), and resuspended in corresponding full medium. Suspension cells or trypsinized adherent cells, supernatant and washing solution (1×PBS from washing before trypsinization) were pooled and then spun down (300 g for 3 min) washed in 2 ml and resuspended in 1000 of annexin V binding buffer and mixed with 2 μg/ml annexin V-Allophycocyanin (APC) (BD-Pharmingen, San Diego, Calif., USA) and 50 ng/ml of propidium iodide (PI; Sigma Aldrich). At least 10.000 cells were measured per sample using a Becton Dickinson FACSCalibur flow Cytometer (San Jose, Calif., USA). Percentage of Annexin V negative and PI negative cells were depicted in the figures. For the analysis of the pro-apoptotic activity of Imiquimod® in primary MM cells and non-malignant BMMCs, 5×10^5 cells BMMCs cells were treated with or without 40 μg/ml Imiquimod® for the indicated time periods. Cells were then harvested and washed twice with PBS. Detection of apoptotic cells was performed using the annexin V/PI assay according to manufacturers' instruction. Briefly, BMMCs were stained with a mixture of annexin V/FITC (Alexis Coorp., Laeufelfingen, Switzerland), propidium iodide (Sigma), anti-CD38-PE and anti-CD45-PC5 for 15 min at room temperature and immediately analyzed by flow cytometry. The percentages of viable cells (i.e. cells negative for annexin V/FITC and PI) within the MM (CD38^posCD45^low/absent) and non-MM fraction (CD38^neg/CD45^pos) were determined by flow cytometry.
(§2) Adherent cells were grown in 24-well plates to confluence and treated with 40 μg/ml Imiquimod® for 24 h. Cells were then trypsinized, suspended in full medium, stained for AnnexinV/PI and apoptosis was measured as described before. Suspension cells (250.000) were treated with 40 μg/ml Imiquimod® for 24 h, stained for Annexin/PI and apoptosis was measured as described above (Annexin V/Propidium Iodide apoptosis Assay).

[4] = test system: NCI cells; test: Annexin V/PI apoptosis assay, NCI cells; format: cell-based; conditions: 40 μg/ml, 24 h
Protocol: as §1, with “For the analysis of the pro-apoptotic activity of Imiquimod® in primary MM cells and non-malignant BMMCs, 5×10^5 cells BMMCs cells were treated with or without 40 μg/ml Imiquimod® for the indicated time periods. Cells were then harvested and washed twice with PBS. Detection of apoptotic cells was performed using the annexin V/PI assay according to manufacturers' instruction.” left out
Adherent cells were grown in 24-well plates to confluence and treated with 40 μg/ml Imiquimod® for 24 h. Cells were then trypsinized, suspended in full medium, stained for AnnexinV/PI and apoptosis was measured as described before. […]

[5] = test system: TLR7 pathway; test: TLR pathway activation: IRAK1 and IκB degradation by Western blot in OPM2 cells; format: cell-based; conditions: OPM2 cells, 10, 20 or 40 μg/ml over night
Protocol: (§3) Cells were lysed in lysis-IP-Buffer supplemented with protease inhibitors and sodium orthovanadate. 10 μg of lysate were separated by SDS-PAGE (10% polyacrylamide) and transferred to methanol activated Hypond-P PVDF-membranes (Amersham, Freiburg, Germany) by semi-dry blotting. Membranes were blocked in a 3% bovine serum albumin solution or 5% non fat dry milk solution in phosphate buffered saline (PBS) with 0.1% Tween 20 (PBT). Primary antibodies were applied in blocking solution for 1 h at room temperature or over night at 4° C. Membranes were washed in PBT and incubated with corresponding secondary antibodies in 5% non fat dry milk in PBT for 1 h at room temperature. Cells were washed with PBT, incubated with ECL solution and exposed in a Fluorchem 5500 (Biozym, Oldendorf, Germany).
(§4) OPM2 cells were suspended in full medium and cultured in 24-well plates at a cell density of 500.000 cells/ml and well. Cells were left untreated (control) or treated over night with different concentrations of Imiquimod® (10, 20 or 40 μg/ml).
(§5) OPM2 cells were cultured in 24-well plates as described above. Imiquimod® (40 μg/ml) was added to cells (except controls) for different time periods (2, 4, 6 and 8 h) and the extent of PARP1 cleavage, IRAK1, IkB-α and IkB-β degradation were determined by Western blot. α-Tubulin was used as a loading control.

[6] = test system: U266 cells; test: Annexin V/PI apoptosis assay (FACS), U266 cells; format: cell-based; parameters: apoptosis induction: unit not given here; conditions: for apoptosis induction: Imi 20 μg/ml alone; as to apoptosis induction: key: 0 for no; + for low; ++: + indicates the range of apoptosis induction; +++: + indicates the range of apoptosis induction; ++++ for very strong apoptosis induction
[7] = test system: primary MM cells (CD38highCD45low); test: Annexin V/PI apoptosis assay, primary MM cells from patient bone marrow aspirates; format: cell-based, human; conditions: 40 μg/ml, 8 h or 24 h, time dependent
Protocol: For collection of primary multiple myeloma cells, bone marrow aspirates from iliac crests were collected during routine examinations after obtaining informed patient consent. Bone marrow mononuclear cells (BMMCs) were separated by density centrifugation. Fresh blood samples were diluted 1:1 with RPMI 1640 medium and layered over Biocoll separating solution (1.077 g/ml, Biochrom AG, Berlin; blood/RPMI1640/Biocoll; 1:1:1, v/v/v). Centrifugation was carried out for 20 min at 400 g. […] The percentage of multiple myeloma cells within the BMMCs was determined by flow cytometry. Briefly, 2×10^5 cells were stained for 15 min with fluorochrome-labelled antibodies to CD38 (phycoerythrin, PE) and CD45 (phycoerythrin-cyanin 5, PC5) (both from Beckman Coulter Inc., Fullerton, Calif., USA), washed with PBS and were immediately analyzed using the FC500 flow cytometer and the RXP1.0 software (Beckman Coulter). MM cells were detected by their high expression of CD38 and weak to absent expression of CD45.
After treatment adherent cells were trypsinized (as described before), and resuspended in corresponding full medium. […] At least 10.000 cells were measured per sample using a Becton Dickinson FACSCalibur flow Cytometer (San Jose, Calif., USA). […]

[8] = test system: peripheral blood mononuclear cells (PBMCs); test: Annexin V/PI apoptosis assay, PBMCs from healthy donors; format: cell-based, human; conditions: 40 μg/ml, 24 h
Protocol: PBMCs were prepared using separation via Ficoll density gradient centrifugation (Biochrom AG, Berlin, Germany) according to the protocol of the manufacturer.
as §1, §2

[9] = test system: OPM2 cells; test: PARP cleavage assay (Western blot), OPM2 cells; format: cell-based; conditions: 40 μg/ml
Protocol: as §3, §4, §5

[10] = test system: melanoma cells; conditions: 50 μg/ml, 24 h; cited from earlier work

SMILES: CC(C)Cn1cnc2c(N)nc3ccccc3c21 [Imiquimod, 1-(2-methylpropyl)-1H-imidazo[4,5-c]quinolin-4-amine]
- apoptotic cells [1]: 17.3%
- apoptosis induction ([2]; OPM2 cells, 24 h, Imi 20 μg/ml alone): +
- apoptosis induction, single agent ([2]; OPM2 cells, 24 h, Imiquimod 20 μg/ml or Akt inhibitor alone): some apoptosis
- apoptosis induction ([2]; OPM2 cells, 48 h, Imi 20 μg/ml alone): ++
- apoptosis induction ([2]; multiple myeloma cells, 10 μg/ml, 24 h): apoptosis induction
- apoptosis induction in AnnexinV/PI FACS analysis assay ([2]; multiple myeloma cells, 40 μg/ml): 70%
- apoptosis induction, single agent ([3]; OPM2, LP-1, RPMI, U266, Imiquimod 20 μg/ml or Akti1/2 5 or 10 μM alone): some apoptosis
- sensitivity (apoptosis) ([3]; OPM2, U266, LP1, NCI, 40 μg/ml): sensitive
- apoptotic cells [4]: 90%
- IRAK1 degradation [5]: degraded in a concentration-dependent manner
- IκB-α degradation [5]: degraded in a concentration dependent manner
- cells dying upon treatment ([6]; 40 μg/ml, 24 h): about 30%
- apoptosis induction ([6]; 24 h): +
- apoptosis induction ([6]; 48 h, listed as Imi): + and ++
- apoptosis induction [7]: significantly induced apoptosis
- sensitivity (apoptosis) ([8]; CD4+ and CD8+ cells from 12 healthy donors): nearly no sensitivity
- sensitivity (apoptosis) ([8]; CD19+ cells from 12 healthy donors): only mildly affected
- PARP cleavage ([9]; 2 hours after application): some PARP cleavage
- apoptosis induction in PARP cleavage assay ([9]; 6 h to 8 h after application): 100%
- PARP cleavage ([9]; after 6 hours): nearly complete PARP cleavage
- onset of apoptosis induction ([9]; multiple myeloma cells): 2 h
- apoptotic cells [10]: 15.8%
